In patent US20260138961A1, “MODULATORS OF MITOCHONDRIAL DNA REPLICATION” (Pretzel Therapeutics, Inc., priority 2022, published 2026):

The molecules below were run against T1, POLγA:G848S (Homo sapiens, UniProt P54098, G848S) (assay: DNA polymerization assay, POLγA:G848S mutant). Conditions: stimulation of polymerase activity, primed M13mp18 ssDNA, 37° C. 2 hours; read-out: G848S AC50.
T1 sequence (P54098 1-1239 G848S): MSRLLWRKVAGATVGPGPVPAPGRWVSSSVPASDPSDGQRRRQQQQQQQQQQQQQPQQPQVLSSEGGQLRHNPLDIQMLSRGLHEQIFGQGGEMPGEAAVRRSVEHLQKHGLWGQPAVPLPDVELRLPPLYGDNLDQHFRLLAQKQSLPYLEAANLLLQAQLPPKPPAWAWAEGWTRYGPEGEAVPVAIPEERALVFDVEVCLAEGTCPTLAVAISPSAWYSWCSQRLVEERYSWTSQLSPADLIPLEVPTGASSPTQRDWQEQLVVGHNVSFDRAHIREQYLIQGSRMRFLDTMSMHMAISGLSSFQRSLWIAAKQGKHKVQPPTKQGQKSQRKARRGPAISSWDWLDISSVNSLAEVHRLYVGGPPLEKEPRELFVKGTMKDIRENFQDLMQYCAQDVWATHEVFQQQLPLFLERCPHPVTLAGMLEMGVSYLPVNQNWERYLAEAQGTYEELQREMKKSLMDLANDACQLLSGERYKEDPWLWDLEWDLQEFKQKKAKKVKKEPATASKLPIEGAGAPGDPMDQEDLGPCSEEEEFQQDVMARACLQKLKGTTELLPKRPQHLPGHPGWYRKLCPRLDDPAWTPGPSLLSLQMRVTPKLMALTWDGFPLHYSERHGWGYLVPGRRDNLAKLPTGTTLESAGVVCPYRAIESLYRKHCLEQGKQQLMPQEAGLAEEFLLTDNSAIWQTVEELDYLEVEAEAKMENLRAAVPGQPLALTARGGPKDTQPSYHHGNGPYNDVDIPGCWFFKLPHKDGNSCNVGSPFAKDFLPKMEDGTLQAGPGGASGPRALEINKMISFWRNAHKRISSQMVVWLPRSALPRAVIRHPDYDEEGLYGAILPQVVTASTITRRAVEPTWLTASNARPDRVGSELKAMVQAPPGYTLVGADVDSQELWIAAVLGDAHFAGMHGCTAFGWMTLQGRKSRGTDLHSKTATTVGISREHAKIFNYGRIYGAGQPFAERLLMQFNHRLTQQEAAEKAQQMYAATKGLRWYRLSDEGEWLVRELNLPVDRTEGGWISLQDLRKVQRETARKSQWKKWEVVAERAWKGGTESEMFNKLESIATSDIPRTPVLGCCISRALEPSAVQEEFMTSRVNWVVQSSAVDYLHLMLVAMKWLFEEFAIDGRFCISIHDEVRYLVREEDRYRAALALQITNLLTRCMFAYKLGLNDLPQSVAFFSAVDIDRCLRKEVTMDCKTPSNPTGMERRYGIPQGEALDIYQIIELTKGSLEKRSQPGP
T1 sequence (Q9UHN1 1-485 partner): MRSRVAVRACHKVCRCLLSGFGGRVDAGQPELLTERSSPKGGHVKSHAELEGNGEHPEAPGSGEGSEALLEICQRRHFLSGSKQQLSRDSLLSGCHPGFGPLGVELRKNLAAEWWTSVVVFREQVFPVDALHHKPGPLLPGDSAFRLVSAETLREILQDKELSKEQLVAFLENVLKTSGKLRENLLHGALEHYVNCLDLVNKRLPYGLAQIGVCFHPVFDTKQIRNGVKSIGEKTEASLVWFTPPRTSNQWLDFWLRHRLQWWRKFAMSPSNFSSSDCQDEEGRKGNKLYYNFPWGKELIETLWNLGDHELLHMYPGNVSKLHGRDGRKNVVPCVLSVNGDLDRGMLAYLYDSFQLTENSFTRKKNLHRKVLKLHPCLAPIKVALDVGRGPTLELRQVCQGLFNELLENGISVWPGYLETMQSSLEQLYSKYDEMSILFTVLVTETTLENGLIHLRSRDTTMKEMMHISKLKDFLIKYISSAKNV
Format: biochemical

| AC50 | SMILES |
| --- | --- |
| > 10000 nM | Cc1cc(S(=O)(=O)Nc2nc(-c3ccccc3)n(C)n2)c(C)cc1Cl [Example 180, 4-chloro-2,5-dimethyl-N-(1-methyl-5-phenyl-1H-1,2,4-triazol-3-yl)benzenesulfonamide] |
| 700 nM | Cc1cc(S(=O)(=O)Nc2csc(-c3ccn(C)n3)n2)c(C)cc1Cl [Example 181, 4-chloro-2,5-dimethyl-N-(2-(1-methyl-1H-pyrazol-3-yl)thiazol-4-yl)benzenesulfonamide] |
| 500 nM | Cc1cc(S(=O)(=O)Nc2csc(-c3cnn(C)c3)n2)c(C)cc1Cl [Example 183, 4-chloro-2,5-dimethyl-N-(2-(1-methyl-1H-pyrazol-4-yl)thiazol-4-yl)benzenesulfonamide] |
| 24000 nM | Cc1cc2cc(NS(=O)(=O)c3cc(C)c(Cl)cc3C)ccc2[nH]1 [Example 184, 4-chloro-2,5-dimethyl-N-(2-methyl-1H-indol-5-yl)benzenesulfonamide] |

The remaining lines, values behind:

| SMILES | AC50 |
| --- | --- |
| Cc1cc(S(=O)(=O)Nc2cnn(-c3ccccc3)n2)c(C)cc1Cl [Example 171, 4-chloro-2,5-dimethyl-N-(2-phenyl-2H-1,2,3-triazol-4-yl)benzenesulfonamide] | > 10000 nM |
| Cc1cc(S(=O)(=O)Nc2csc(C(=O)N(C)CC(N)=O)n2)c(C)cc1Cl [Example 172, N-(2-amino-2-oxoethyl)-4-((4-chloro-2,5-dimethylphenyl)sulfonamido)-N-methylthiazole-2-carboxamide] | > 10000 nM |
| Cc1cc(S(=O)(=O)Nc2csc(-c3ccccn3)n2)c(C)cc1Cl [Example 173, 4-chloro-2,5-dimethyl-N-(2-(pyridin-2-yl)thiazol-4-yl)benzenesulfonamide] | 2000 nM |
| Cc1cc(S(=O)(=O)Nc2csc(C(=O)N3CCC[C@H]3C)n2)c(C)cc1Cl [Example 174, (R)-4-chloro-2,5-dimethyl-N-(2-(2-methylpyrrolidine-1-carbonyl)thiazol-4-yl)benzenesulfonamide] | 400 nM |
| Cc1cc(S(=O)(=O)Nc2csc(C(=O)N3CCC[C@@H]3C)n2)c(C)cc1Cl [Example 175, (S)-4-chloro-2,5-dimethyl-N-(2-(2-methylpyrrolidine-1-carbonyl)thiazol-4-yl)benzenesulfonamide] | 1000 nM |
| Cc1cc(S(=O)(=O)Nc2csc(-c3ccncc3)n2)c(C)cc1Cl [Example 176, 4-chloro-2,5-dimethyl-N-(2-(pyridin-4-yl)thiazol-4-yl)benzenesulfonamide] | 400 nM |
| Cc1cc(S(=O)(=O)Nc2csc(C(=O)N(CC(N)=O)C3CCCC3)n2)c(C)cc1Cl [Example 177, N-(2-amino-2-oxoethyl)-4-((4-chloro-2,5-dimethylphenyl)sulfonamido)-N-cyclopentylthiazole-2-carboxamide] | > 100000 nM |
| Cc1cc(S(=O)(=O)Nc2csc(-n3cccn3)n2)c(C)cc1Cl [Example 178, N-(2-(1H-pyrazol-1-yl)thiazol-4-yl)-4-chloro-2,5-dimethylbenzenesulfonamide] | 1000 nM |
| Cc1cc(S(=O)(=O)Nc2csc(C(=O)N(CC(N)=O)C3CCCCC3)n2)c(C)cc1Cl [Example 179, N-(2-amino-2-oxoethyl)-4-((4-chloro-2,5-dimethylphenyl)sulfonamido)-N-cyclohexylthiazole-2-carboxamide] | > 10000 nM |
